Literature values in patent publication US7855206B2, “Tricyclic heteroaromatic compounds as dipeptidyl peptidase-IV inhibitors for the treatment or prevention of diabetes” (Merck Sharp & Dohme Corp., priority 2006, dated 2010).

Columns and labels:
[1] = tested on: cardiac allograft in rats; conditions: doubled from day 7
hematopoiesis in mouse = conditions: cyclophosphamide-induced neutropenia
[2] = tested on: GRF degradation in plasma

CC(C)N1CCC(c2ccccc2)(c2ccccc2)CC1 [Prodipine, Pro-Pro-diphenyl-phosphonate]
cardiac allograft survival [1]: 14 day

CC(C)[C@H](N)C(=O)N1CCC[C@H]1B(O)O [Val-Boro-Pro]
effect on hematopoiesis (hematopoiesis in mouse): stimulated hematopoiesis

CC[C@H](C)[C@H](N)C(=O)N1CCC[C@H]1C(=O)N[C@H](C(=O)O)[C@@H](C)CC [diprotin A]
effect on degradation of GRF to GRF[3-44] [2]: prevented
